{"source": "patent US20230017266A1", "about": "“Cyclooxygenase-2 Inhibition for the Treatment of SAA-high Asthma” (THE USA, AS REPRESENTED BY THE SECRETARY, DEPT. OF HEALTH …, priority 2019, published 2023)", "assay_type_in_all_cases": "cell-based, human", "details_in_all_cases": "diclofenac 1 mM, 24 h", "key": {"CD14^+ monocytes [1]": {"test_system": "CD14^+ monocytes", "assay": "PGE2 and TXB2 secreted by CD14+ monocytes cultured with HDL+SAA1", "text": "FIG. 4 illustrates that HDL enriched with serum amyloid A (HDL+SAA1) induces cytokine secretion from CD14+ monocytes via a P2X7R/NF-κB/COX-2-dependent pathway. a, Volcano plot showing differentially expressed mRNA transcripts from classical CD14+/CD16− monocytes from asthmatics (n=10) that were stimulated ex vivo with or without HDL enriched with recombinant human SAA1 (HDL+SAA1). Additional experiments utilized ex vivo cultures of CD14^+ monocytes isolated by flow cytometry from healthy subjects to characterize the HDL+SAA1-mediated P2X7R/NF-κB/COX-2-dependent pathway, except where indicated. b, PTGS2 mRNA levels were quantified by qRT-PCR in cells stimulated with normal HDL or HDL+SAA1 and presented as RQ (relative quantification). n=7 subjects, pairwise comparisons of all groups vs. media, repeated measures one-way ANOVA with Dunnett's multiple comparisons test. c, Western blot showing COX-1 and COX-2 protein in cells stimulated with normal HDL or HDL+SAA1. GAPDH is shown as a control for equivalency of protein loading. The Western blot shown is representative of 3 independent experiments using cells from different subjects. […]"}, "CD14^+ monocytes [2]": {"test_system": "CD14^+ monocytes", "assay": "HDL+SAA1-induced cytokine secretion by ex vivo CD14+ monocytes (ELISA)"}, "CD14^+ monocytes [3]": {"test_system": "CD14^+ monocytes", "assay": "HDL+SAA1-induced cytokine secretion by ex vivo CD14+ monocytes (ELISA)", "protocol": "Isolation of Peripheral Blood Monocytes. Peripheral blood monocytes were isolated using a two-step process. Peripheral blood was diluted with PBS at a 1:1 ratio, slowly overlaid onto 30 ml of Lymphoprep™ (catalog #07811, StemCell Technologies, Vancouver Canada) in a 50 ml conical tube, and centrifuged at 400×g for 25 min without braking. The peripheral blood mononuclear cell (PBMC) layer was carefully transferred to another 50 ml conical tube, washed with PBS, followed by two washes with FACS buffer (0.5 mM EDTA, 1% BSA, and 1% mouse serum in PBS). Monocytes subsets were identified and sorted by flow cytometry using the following antibodies: PE mouse anti-human CD45 clone HI30 (catalog #555483), BV421 mouse anti-human CD14 clone MφP9 (catalog #563743), and FITC mouse anti-human CD16 clone B73.1 (catalog #561308), and a FACS ARIA Fusion sorter equipped with 355, 407, 488, 532 and 640 nm LASER lines using FACS DIVA 8.0 software (all from BD Biosciences, San Jose, Calif.). The gating strategy identified a population of debris-free, single, live, ^SSCmoderate/high, CD45^+ cells from which CD14^+/CD16^− (classical), CD14^+/CD16^+ (intermediate), CD14^dim/CD16^+ (non-classical), and CD14^+ (classical and intermediate) cells were sorted and utilized for experiments, as indicated (Supplemental FIG. 4).\nHDL+SAA1 Stimulation of Peripheral Blood Monocytes Subsets. […] As previously described, normal HDL was isolated from plasma obtained from healthy subjects by sequential KBr differential gradient ultracentrifugation at 330,000 g and extensive dialysis with 50 mM HEPES, 50 mM NaCL, 5 mM MgCl2 and 2 mM CaCl2, pH 7.0, at 4° C. Normal HDL was complexed with recombinant human serum amyloid A-1 at a 2:1 ratio by mixing and incubated at RT overnight to generate HDL+SAA1, which was filtered using a 100-kDa exclusion filter (Amicon Ultra Centrifuge Filters, Millipore, Darmstadt, Germany) to remove any uncomplexed SAA1. Normal HDL was also complexed with the amount of lipopolysaccharide (catalog # L4391, E. coli 0111:B4, y-irradiated, MilliporeSigma, St. Louis, Mo.) present in recombinant human SAA1. Additionally, classical CD14^+ monocytes were treated with the P2X7R antagonist, A438079, the IKK inhibitor, BAY-11-7082, the IKKβ (IKK-2) inhibitor, TPCA-1, or the selective COX-2 inhibitor, celexocib, all from MilliporeSigma(St. Louis, Mo.). Cells were also treated with the FPR2 antagonist, WRW4, or diclofenac from Tocris (Minneapolis, Minn.). The amount of IL-1β, IL-6, TNF-α and IL-10 secreted into cell culture supernatants was quantified using human DuoSet ELISA kits (R&D Systems) and data were acquired using a SpectraMax M2 spectrophotometer (Molecular Devices, San Jose, Calif.). Western blotting, as previously described^43, was performed using antibodies directed against COX-1 (catalog #160110) and COX-2 (catalog #160112), both from Cayman Chemical (Ann Arbor, Mich.). Equivalency of protein loading was established using an antibody directed against GAPDH (catalog #MAB5718) from R&D Systems (Minneapolis, Minn.). Western blots images were captured using an iBright FL1000 Western Blot Imaging System (ThermoFisher Scientific, Waltham, Mass.) and quantified using NIH ImageJ software (imagej.nih.gov). […]", "remark": "listed apart in the source"}}, "data": [{"smiles": "O=C(O)Cc1ccccc1Nc1c(Cl)cccc1Cl", "note": "[diclofenac, 2-[(2,6-dichlorophenyl)amino] benzeneacetic acid]", "values": [{"measurement": "HDL+SAA1-induced increase in prostaglandin E2", "setting": "CD14^+ monocytes [1]", "value": "suppressed"}, {"measurement": "HDL+SAA1-induced increase in thromboxane B2", "setting": "CD14^+ monocytes [1]", "value": "suppressed"}, {"measurement": "HDL+SAA1-mediated secretion of IL-13", "setting": "CD14^+ monocytes [2]", "value": "significantly inhibited"}, {"measurement": "HDL+SAA1-mediated secretion of IL-6", "setting": "CD14^+ monocytes [3]", "value": "significantly inhibited"}, {"measurement": "HDL+SAA1-mediated secretion of IL-10", "setting": "CD14^+ monocytes [3]", "value": "significantly inhibited"}, {"measurement": "HDL+SAA1-mediated secretion of TNF-α", "setting": "CD14^+ monocytes [3]", "value": "significantly inhibited"}]}]}
